Results taken from patent US4650801A, “Anti-cancer compositions for delivering 5-fluorouracil” (Taiho Pharmaceutical Company, Ltd., priority 1978, dated 1987).
Like-named read-outs stand apart in the source and are kept apart here.

System: sarcoma 180
Type: in vivo
Protocol: The anti-cancer compositions of this invention are tested in mice by the following methods to determine acute toxicity, anti-cancer effect and therapeutic index
Male mice of ICR strain weighing 22±1 g are used, 5 mice in each group. A 5-fluorouracil (a) and uracil derivative (b) in the proportions listed in Tables 1-16 are suspended in a 5% solution of gum arabic to prepare a suspension, which is forcibly orally administered to each mouse through a tube at a dose of 1 ml/100 g. Over the following period of three weeks the mice are checked every day for poisoning, body weight and mortality. The LD50 is determined according to the up-and-down method 3 weeks after the administration.
Tissues of sarcoma 180, 2×10^6, are subcutaneously transplanted in the back of male mice of ICR strain (6 mice in each group). A 5-fluorouracil (a) and uracil derivative (b) in the proportions listed in Tables 1-16 are suspended in a 5% solution of gum arabic to prepare a suspension. Twenty-four hours after the transplantation and during the following seven consecutive days the suspension is orally given to the animal once every day.
The LD50 and ED50 values obtained above are used to determine the therapeutic index (LD50 /ED50).

O=c1[nH]cc(F)c(=O)n1C1CCCO1 (stereo not shown) [Compound 6, 3-(2-Tetrahydrofuryl)-5-fluorouracil] was tested, and the “Therapeutic Index (LD50/ED50)” value ((b) = 1(2-Tetrahydrofuryl)uracil, (b)/(a) mol ratio 1) was 17.1, the “Therapeutic Index (LD50/ED50)” value ((b) = 1(2-Tetrahydrofuryl)uracil, (b)/(a) mol ratio 2) was 22.4 and the “Therapeutic Index (LD50/ED50)” value ((b) = 1(2-Tetrahydrofuryl)uracil, (b)/(a) mol ratio 5) was 29.7. The “Therapeutic Index (LD50/ED50)” value ((b) = 1Acetyluracil, (b)/(a) mol ratio 1) was 21.9, the “Therapeutic Index (LD50/ED50)” value ((b) = 1Acetyluracil, (b)/(a) mol ratio 2) was 18.0 and the “Therapeutic Index (LD50/ED50)” value ((b) = 1Acetyluracil, (b)/(a) mol ratio 5) was 15.4. For the same molecule, the “Therapeutic Index (LD50/ED50)” value ((b) = 1Cyclohexylcarbamoyluracil, (b)/(a) mol ratio 0.5) was 15.1, the “Therapeutic Index (LD50/ED50)” value ((b) = 1Cyclohexylcarbamoyluracil, (b)/(a) mol ratio 2) was 15.1 and the “Therapeutic Index (LD50/ED50)” value ((b) = 1Cyclohexylcarbamoyluracil, (b)/(a) mol ratio 5) was 17.5. For the same molecule, the “Therapeutic Index (LD50/ED50)” value ((b) = 1n-Hexylcarbamoyluracil, (b)/(a) mol ratio 1) was 15.7, the “Therapeutic Index (LD50/ED50)” value ((b) = 1n-Hexylcarbamoyluracil, (b)/(a) mol ratio 2) was 20.6 and the “Therapeutic Index (LD50/ED50)” value ((b) = 1n-Hexylcarbamoyluracil, (b)/(a) mol ratio 10) was 16.8. The “Therapeutic Index (LD50/ED50)” value ((b) = 2'-Deoxycytidine, (b)/(a) mol ratio 1) was 15.7, the “Therapeutic Index (LD50/ED50)” value ((b) = 2'-Deoxycytidine, (b)/(a) mol ratio 2) was 17.9 and the “Therapeutic Index (LD50/ED50)” value ((b) = 2'-Deoxycytidine, (b)/(a) mol ratio 10) was 20.0. The “Therapeutic Index (LD50/ED50)” value ((b) = 2'-Deoxyuridine, (b)/(a) mol ratio 1) was 15.9, the “Therapeutic Index (LD50/ED50)” value ((b) = 2'-Deoxyuridine, (b)/(a) mol ratio 2) was 18.8 and the “Therapeutic Index (LD50/ED50)” value ((b) = 2'-Deoxyuridine, (b)/(a) mol ratio 20) was 20.2. For the same molecule, the “Therapeutic Index (LD50/ED50)” value ((b) = 3Benzoyluracil, (b)/(a) mol ratio 1) was 18.3, the “Therapeutic Index (LD50/ED50)” value ((b) = 3Benzoyluracil, (b)/(a) mol ratio 2) was 20.7 and the “Therapeutic Index (LD50/ED50)” value ((b) = 3Benzoyluracil, (b)/(a) mol ratio 10) was 17.9. For the same molecule, the “Therapeutic Index (LD50/ED50)” value ((b) = 5Bromo-2'-deoxyuridine, (b)/(a) mol ratio 0.5) was 13.1, the “Therapeutic Index (LD50/ED50)” value ((b) = 5Bromo-2'-deoxyuridine, (b)/(a) mol ratio 2) was 15.9 and the “Therapeutic Index (LD50/ED50)” value ((b) = 5Bromo-2'-deoxyuridine, (b)/(a) mol ratio 10) was 14.0. For the same molecule, the “Therapeutic Index (LD50/ED50)” value ((b) = 5Bromouracil, (b)/(a) mol ratio 0.5) was 19.1, the “Therapeutic Index (LD50/ED50)” value ((b) = 5Bromouracil, (b)/(a) mol ratio 2) was 22.1 and the “Therapeutic Index (LD50/ED50)” value ((b) = 5Bromouracil, (b)/(a) mol ratio 10) was 19.6. For the same molecule, the “Therapeutic Index (LD50/ED50)” value ((b) = 5Iodouracil, (b)/(a) mol ratio 1) was 18.0, the “Therapeutic Index (LD50/ED50)” value ((b) = 5Iodouracil, (b)/(a) mol ratio 2) was 22.4 and the “Therapeutic Index (LD50/ED50)” value ((b) = 5Iodouracil, (b)/(a) mol ratio 5) was 17.6. For the same molecule, the “Therapeutic Index (LD50/ED50)” value ((b) = Cytidine, (b)/(a) mol ratio 1) was 17.6, the “Therapeutic Index (LD50/ED50)” value ((b) = Cytidine, (b)/(a) mol ratio 2) was 23.8 and the “Therapeutic Index (LD50/ED50)” value ((b) = Cytidine, (b)/(a) mol ratio 10) was 22.7. For the same molecule, the “Therapeutic Index (LD50/ED50)” value ((b) = Cytosine, (b)/(a) mol ratio 1) was 18.2, the “Therapeutic Index (LD50/ED50)” value ((b) = Cytosine, (b)/(a) mol ratio 2) was 24.9 and the “Therapeutic Index (LD50/ED50)” value ((b) = Cytosine, (b)/(a) mol ratio 10) was 26.6. For the same molecule, the “Therapeutic Index (LD50/ED50)” value ((b) = Orotic acid, (b)/(a) mol ratio 1) was 14.8, the “Therapeutic Index (LD50/ED50)” value ((b) = Orotic acid, (b)/(a) mol ratio 2) was 15.9 and the “Therapeutic Index (LD50/ED50)” value ((b) = Orotic acid, (b)/(a) mol ratio 20) was 17.5. For the same molecule, the “Therapeutic Index (LD50/ED50)” value ((b) = Thymidine, (b)/(a) mol ratio 0.5) was 14.4, the “Therapeutic Index (LD50/ED50)” value ((b) = Thymidine, (b)/(a) mol ratio 2) was 14.1 and the “Therapeutic Index (LD50/ED50)” value ((b) = Thymidine, (b)/(a) mol ratio 10) was 10.7. For the same molecule, the “Therapeutic Index (LD50/ED50)” value ((b) = Thymine, (b)/(a) mol ratio 0.5) was -17.3, the “Therapeutic Index (LD50/ED50)” value ((b) = Thymine, (b)/(a) mol ratio 2) was 19.9 and the “Therapeutic Index (LD50/ED50)” value ((b) = Thymine, (b)/(a) mol ratio 10) was 23.1. For the same molecule, the “Therapeutic Index (LD50/ED50)” value ((b) = Uridine, (b)/(a) mol ratio 1) was 22.0, the “Therapeutic Index (LD50/ED50)” value ((b) = Uridine, (b)/(a) mol ratio 2) was 26.3 and the “Therapeutic Index (LD50/ED50)” value ((b) = Uridine, (b)/(a) mol ratio 20) was 20.6. For the same molecule, the “Therapeutic Index (LD50/ED50)” value ((b)/(a) mol ratio 0 (alone)) was 13.1.
